US11833144B2, “Treating autoimmune disease” (Mayo Foundation for Medical Education and Research, priority 2020, dated 2023)

Legend:
[1] = tested on: LC3-I/LC3-II, p-S6, p-S6K, AID; assay: Immunoblot of LC3-I/LC3-II, p-S6, p-S6K and AID in activated murine B cells; assay type: cell-based, mouse
Procedure: For immunoblotting, cells were lysed in lysis buffer with protease and phosphatase inhibitors (Sigma-Aldrich). Protein concentration in samples were quantified by BCA assay (Thermo Fisher Scientific) before loading the samples for electrophoresis and membrane transfer. The transferred membrane was blocked with TBST (0.1% Tween 20) containing 5% BSA for 1 hour at room temperature. The membrane was incubated with primary antibodies overnight including anti-p-S6 (Ser235/Ser236, D57.2.2E; Cell Signaling), anti-p-p70 S6 kinase (Thr389, 108D2; Cell Signaling), anti-p-4E-BP1 (Thr37/46, 236B4; Cell Signaling), anti-LC3α/β (G-4; Santa Cruz); anti-p-ULK1 (Ser757, D706U; Cell Signaling), anti-AID (EK2 5G9; Cell Signaling), anti-β-actin (13E5; Sigma-Aldrich), and anti-SCD2 (H-12; Santa Cruz). Then, the membrane was washed and incubated with the corresponding secondary antibody for subsequent enhanced chemiluminescence (ECL; Thermo Fisher) exposure. The band intensity of all the immunoblot was analyzed by ImageJ software.

[2] = tested on: activated human B cells; assay: Seahorse OCR / ECAR in activated human B cells; assay type: cell-based
Procedure: The bioenergetic activities of the OCR and ECAR were measured using a Seahorse XFe96 Extracellular Flux Analyzed following established protocols (Agilent). Briefly, B cells were seeded at 200,000 cells/well on Cell-Tak (Corning) coated XFe96 plate with fresh XF media (Seahorse XF RPMI medium containing 10 mM glucose, 2 mM L-glutamine, and 1 mM sodium pyruvate, PH 7.4; all reagents from Agilent). OCR was measured in the presence of Oligomycin (1.5 μM; Sigma-Aldrich), FCCP (1.5 μM; Sigma-Aldrich), and Rotenone (1 μM; Sigma-Aldrich)/Antimycin A (1 μM; Sigma-Aldrich) in Mito Stress assay. For ECAR measurement, B cells were seeded in XFe96 plate with fresh Seahorse XF RPMI medium with 2 mM L-glutamine (PH 7.4), and treated with glucose (10 mM; Agilent), Oligomycin (1.5 and 2-DG (50 mM; Sigma-Aldrich) orderly in Glycolysis Stress assay.

[3] = tested on: influenza A infected mice; assay: Influenza A/PR8 infection of mice fed SSI-4 chow; assay type: in vivo, mouse
Procedure: For influenza virus infection, influenza A/PR8 strain (200 pfu/mouse) were diluted in FBS-free DMEM media on ice and inoculated in anesthetized mice through intranasal route. Sera were collected before and two weeks after infection for fatty acid component measurement. The mice were fed with control chow or SSI-4 chow for 1 week following influenza infection before switching to regular diet. The mediastinal lymph nodes were analyzed for GC B cell formation and Tfh differentiation. Mice were bred and maintained under specific pathogen-free conditions in Department of Comparative Medicine of Mayo Clinic with IACUC approval.
For analysis of surface markers, cells were stained in PBS containing 1% (w/v) bovine serum albumin on ice for 30 minutes, with anti-IgG1 (RMG1-1, Biolegend), anti-CD19 (ID3, Biolegend) anti-B220 (RA3-6B2, Biolegend), anti-CD4 (GK1.5, Biolegend), anti-CD8 (53-6.7, Biolegend), anti-CD25 (PC16, Biolegend), anti-GL7 (GL-7, Biolegend), anti-CD95 (Jo2, BD Biosciences), anti-CD138 (281-2, Biolegend), anti-IgD (11-26c.2a, Biolegend), anti-PD-1 (J43, ThermoFisher), anti-IgM (II/41, ThermoFisher). Antigen specific GC response was detected with tetramer NP-phycoerythrin conjugated with PE (Biosearch Technologies). CXCR5 was stained with biotinylated anti-CXCR5 (2G8) followed by staining with streptavidin-conjugated PE (both from BD Biosciences). Cell viability was assessed using the Fixable Dye Ghost 510 (Tonbo Bioscience) or Annexin V cell apoptosis kit with 7-AAD (ThermoFisher) following the manufacturer's protocol. Phosflow staining for phospho-S6 (S235/236) was performed using Phosflow Fix/Perm kit (BD Biosciences). Mitochondrial potential was measured by staining with 20 nM TMRM (ThermoFisher) following manufacturer's instructions. Flow cytometry was performed on the LSR II, LSR Fortessa (BD Biosciences) or Attune NxT (ThermoFisher) cytometers, and analysis was performed using FlowJo software (Tree Star).
For NP specific antibodies detection in sera, 96-well plates (2596; Costar) were coated with 2 μg/mL NP23-BSA in PBS overnight. Plates were washed twice (0.05% Tween 20 in PBS), blocked with 5% blocking protein (Bio-Rad) for 1 hour, and washed twice, and serially diluted serum samples were added for 1.5 hours at 37° C. Plates were washed four times and horseradish peroxidase (HRP)-conjugated detection Abs for IgG (Bethyl Laboratories) and IgG1 (Bethyl Laboratories) were added for 1 hour at RT, washed four times, and tetramethylbenzidine (TMB) substrate was added. Reaction was stopped using 2N H2SO4 and read at 450 nm. Similarly, antibodies IgG, IgG1 and IgG2c specific to influenza A/PR8 strain in sera were measured with influenza virus coated plate.

| SMILES | levels of p-S6K and p-S6 with exogenous OA ([1]; SSI-4 treated or SCD1/2 deficient B cells plus OA) | increased LC3-II/LC3-I ratio with exogenous OA ([1]; SSI-4 treated or SCD deficient B cells plus OA) | human B cell glycolysis (ECAR) ([2]; exogenous OA, 72 h) | respiration (OCR) in activated human B cells ([2]; exogenous fatty acid, 72 hours) | levels of p-S6K and p-S6 ([1]; SSI-4 treated B cells) | LC3-II/LC3-I ratio ([1]; SSI-4 treated B cells vs control cells) | expression of activation-induced cytidine deaminase (AID) ([1]; SSI-4 treatment) | production of anti-influenza total IgG, IgG1 and IgG2c in sera ([3]; ELISA) | body weight loss in influenza A infected mice ([3]; SSI-4 chow for 1 week following infection vs control chow) | frequency of GC B cells in mediastinal lymph nodes ([3]; day 11 following infection) | CD138+ plasmablast formation ([3]; influenza infection) | expression of Bcl6 in B cells ([3]; mediastinal lymph nodes) |
| --- | --- | --- | --- | --- | --- | --- | --- | --- | --- | --- | --- | --- |
| CCCCCCCC/C=C\CCCCCCCC(=O)O [OA, oleic acid] | restored | completely rescued | improved human B cell glycolysis | augmented respiration | – | – | – | – | – | – | – | – |
| CNC(=O)c1ccnc(NC(=O)N2CCC(Oc3ccccc3Cl)CC2)c1 [SSI-4, 2-{[4-(2-Chlorophenoxy)piperidine-1-carbonyl]amino}-N-methylpyridine-4-carboxamide] | – | – | – | – | decreased | substantial increase | Reduced expression | significantly dampened | substantially more severe weight loss | significantly reduced | did not affect | significantly reduced |
